Experimental data: paper PMC12388125, “Design, Synthesis, and Pharmacological Activity of the N-(4-(1H-1,2,4-Triazol-1-yl)phenyl)-substituted-amide Derivatives” (Molecules, 2025)
“Also recorded” adds a separate entry of the source. Like-named read-outs stand apart in the source and are kept apart here.

Key:
MES-induced seizures [1] = test: animal or person; assay type: in vivo, Kunming mice; conditions: for ED50 (MES) / PI (TD50/ED50) MES / ED50: 0.5 h; for ED50 (MES): value (95% CI); for PI (TD50/ED50) MES: Kunming, mouse, in vivo; for ED50 / minimal effective dose: Mus musculus; for ED50: as given in the text; for minimal effective dose: ip, doses 30, 100, 300 mg/kg, read-out: MES, dose at which at least one of three animals was protected
Protocol: (§1) Pharmacological tests were performed using two experimental animal models, MES and scPTZ, which were divided into three dosage groups of 30, 100, and 300 mg/kg, and the anticonvulsant activity of the target compounds 6a–m and 9a–g, after 0.5 and 4 h of administration, respectively, were tested. Carbamazepine, which is effective in the MES model, was chosen as a positive control, and ethosuximide, which is effective in the scPTZ model, was chosen as a positive control. […]
Protection against the spread of
extension component of the seizure. […]

mice [2] = conditions: Kunming, mouse, in vivo, 0.5 h
Protocol: (§2) The neurotoxicity of the target compounds was tested using the ROT experimental model, which was divided into two dose groups, 100 and 300 mg/kg, and tested after 0.5 and 4 h of administration, respectively.
(§3) The neurotoxicity of the target compounds was determined using the ROT experimental model.
(§4) The neurotoxicity of the compounds wa s measured in mice using the rotarod test. Mice
(§5) we r e trained to stay on an accelerating rotarod (diameter, 3.2 cm) rotating at 10 rpm. Trained
(§6) animals we r e injected with the test compounds (i.p.) and neurotoxicity wa s measured as the
(§7) inability of the animal to maintain equilibrium on the rod for at least 1 min in each of the

[3] = Rotarod (ROT) neurotoxicity test; conditions: Kunming, mouse, in vivo, intraperitoneal
Protocol: as §2, §3, §4, §5, §6, §7

mice [4] = test: Rotarod (ROT) neurotoxicity test; conditions: for TD50 (ROT): 0.5 h, value (95% CI); for NT (neurotoxicity, ROT), dose at which at least one of three animals showed neurotoxicity: doses 100, 300 mg/kg
Protocol: as §2, §3, §4, §5, §6, §7

[5] = system: GABA content in brain tissue; test: GABA estimation in brain tissue; assay type: in vivo, Wistar rats; conditions: 30 mg/kg, n = 5
Protocol: The data obtained from the experiments were analyzed and processed and plotted using GraphPad Prism 8 software.
We i g h about 0.05 g of tissue sample in a homogenizer, add 450 µL of extracting solution
to homogenize, homogenize, transfer to an EP tube, mark the liquid level scale, and heat for 2
hours at 95°C. After heating, centrifuge at 8000 × g for 10 min and remove the supernatant for
① Standard tube: Ta k e 30 µL of different concentrations of standards and add them to
the corresponding 1.5 mL EP tube. Measurement tube: Ta k e 30 µL of sample supernatant and
add it to 1.5 mL EP tube. ② Add 50 µL of buffer solution and 40 µL of Chromogenic Agent A
to each tube in step, mix we l l , and let stand at room temperature for 5 min. ③ Add 60 µL of
Chromogenic Agent B to each tube in step, mix we l l , and heat at 95°C for 10 min, then cool at
ice bath. ④ Add 200 µL of supplementary solution to each tube in step and mix well. ⑤ Ta k e
200 µL into the corresponding we l l s of the enzyme plate, and measure the OD va l u e of each

mice [6] = test: Elevated plus maze (EPM) test; assay type: in vivo; conditions: n = 6
Source text: The EPM experiment is a method for evaluating whether experimental animals have an anxiety response. The principle is that, in the face of new things, mice will generate curiosity to explore (open arm), while they have a nature of darkness (closed arm), the conflict behavior between the two occurs between exploration and avoidance, resulting in anxiety. Anxious behavior can be evaluated by comparing the retention time of mice in the open and closed arms.
Flumazenil is a selective BZ antagonist with a chemical structure similar to that of BZs, which acts on central benzodiazepine (BZ) receptors and thus blocks the receptors without producing BZ-like effects.
The apparatus consisted of a black acrylic maze with two opposite open arms (50×10 cm) and two opposite closed arms (50×10×40 cm) disposed like a plus sign with a central square of 10 cm2. Entire maze wa s elevated 50 cm above the floor. The test consisted in placing the rat in the central square of the maze facing one closed arm and allowing it to explore during 5 min. This procedure wa s performed in a quiet and dimly illuminated room. The scores analysed we r e the time spent in open and closed arms, and the number of entries to both […]
widely used as an anxiety index (time spent in open arms relative to the time spent in open […]
and closed arms). […]

[7] = system: pentylenetetrazole-induced clonic seizures; test: animal or person; assay type: in vivo, Kunming mice; conditions: for ED50 (scPTZ) / PI (TD50/ED50) scPTZ / ED50: 0.5 h; for ED50 (scPTZ): value (95% CI); for PI (TD50/ED50) scPTZ: Kunming, mouse, in vivo; for ED50 / minimal effective dose: Mus musculus, sc; for ED50: as given in the text, read-out: ED50 (scPTZ); for minimal effective dose: doses 30, 100, 300 mg/kg, read-out: scPTZ, dose at which at least one of three animals was protected
Protocol: as §1
The test compound wa s
Absence of clonic spasms indicated a […]

MES-induced seizures [8] = system: MES-induced seizures; set-up: method as in doi:10.1016/j.molstruc.2025.141611; conditions: cited from earlier work; for MES, dose at which at least one of three animals was protected: lead compound of previous study
[9] = system: pentylenetetrazole-induced clonic seizures; set-up: method as in doi:10.1016/j.molstruc.2025.141611; conditions: cited from earlier work; for scPTZ, dose at which at least one of three animals was protected: lead compound of previous study
mice [10] = system: mice; set-up: method as in doi:10.1016/j.molstruc.2025.141611; conditions: cited from earlier work; for NT (neurotoxicity, ROT): lead compound of previous study

With `NC(=O)N1c2ccccc2C=Cc2ccccc21` [Carbamazepine, reference compound] the ED50 (MES) (MES-induced seizures [1]) was 11.4 mg/kg, the “PI (TD50/ED50) MES” value (MES-induced seizures [1]) was 6.1 and the ED50 (MES-induced seizures [1]) was 11.4 mg/kg. The “TD50 (ROT)” value (mice [2]) was 69.3 (75.4–63.8) mg.

For `O=C(Nc1ccc(-n2cncn2)cc1)c1cccc(F)c1` [Compound 6f, N-(4-(1H-1,2,4-triazol-1-yl)phenyl)-3-fluorobenzamide], the TD50 at 0.5 h [3] was 477 mg/kg, the “TD50 (ROT)” value (mice [4]) was 476.7 (518.3–438.5) mg and the “NT (neurotoxicity, ROT), dose at which at least one of three animals showed neurotoxicity” value (“NT (neurotoxicity, ROT), dose at which” below) (mice [4]; 0.5 h after administration) was >300 mg/kg. For the same molecule, the “NT (neurotoxicity, ROT), dose at which” value (mice [4]; 4 h after administration) was >300 mg/kg, the “GABA content in brain tissue vs control” value ([5]; 2 h after administration) was “do not show significant differences” and the “GABA content in brain tissue vs control” value ([5]; 7 d continuous administration) was “showed significant differences”. The “EPM % of time in open arms vs control” value (mice [6]; 3 mg/kg) was “showed a significant difference; also recorded: showed significant differences”, the “EPM % of time in open arms vs control” value (mice [6]; 6f 3 mg/kg + FMZ 5 mg/kg) was “also showed significant differences” and the “EPM time in open arm vs 6f group” value (mice [6]; 6f 3 mg/kg + FMZ 5 mg/kg) was “significantly shortened the time of experimental animals in open arm”. The ED50 (scPTZ) [7] was 19.7 mg/kg, the “PI (TD50/ED50) scPTZ” value [7] was 24.2 and the ED50 [7] was 19.7 mg/kg. It also gave a minimal effective dose ([7]; 0.5 h after administration) of 30 mg/kg, a minimal effective dose ([7]; 4 h after administration) of 30 mg/kg and an ED50 (MES) (MES-induced seizures [1]) of 13.1 mg/kg. For the same molecule, the “PI (TD50/ED50) MES” value (MES-induced seizures [1]) was 36.3, the minimal effective dose (MES-induced seizures [1]; 0.5 h after administration) was 30 mg/kg and the minimal effective dose (MES-induced seizures [1]; 4 h after administration) was 30 mg/kg. For the same molecule, the ED50 (MES-induced seizures [1]) was 13.1 mg/kg.

For `Cc1cccc(C(=O)Nc2ccc(-n3cncn3)cc2)c1` [Compound 6l, N-(4-(1H-1,2,4-triazol-1-yl)phenyl)-3-methylbenzamide], the “TD50 (ROT)” value (mice [4]) was 419.5 (456.1–385.9) mg, the “NT (neurotoxicity, ROT), dose at which” value (mice [4]; 0.5 h after administration) was >300 mg/kg and the “NT (neurotoxicity, ROT), dose at which” value (mice [4]; 4 h after administration) was >300 mg/kg. The “GABA content in brain tissue vs control” value ([5]; 2 h after administration) was “do not show significant differences”, the “GABA content in brain tissue vs control” value ([5]; 7 d continuous administration) was “showed significant differences” and the “EPM % of time in open arms vs control” value (mice [6]; 0.5 mg/kg) was “showed a significant difference”. For the same molecule, the “EPM % of time in open arms vs control” value (mice [6]; 6l 0.5 mg/kg + FMZ 5 mg/kg) was “did not show a significant difference”, the “EPM time in open arm vs 6l group” value (mice [6]; 6l 0.5 mg/kg + FMZ 5 mg/kg) was “significantly shortened the time of the experimental animals in the open arm” and the ED50 (scPTZ) [7] was 19 mg/kg. For the same molecule, the “PI (TD50/ED50) scPTZ” value [7] was 22.1, the ED50 [7] was 19 mg/kg and the minimal effective dose ([7]; 0.5 h after administration) was 30 mg/kg. The minimal effective dose ([7]; 4 h after administration) was 30 mg/kg, the ED50 (MES) (MES-induced seizures [1]) was 9.1 mg/kg and the “PI (TD50/ED50) MES” value (MES-induced seizures [1]) was 45.9. For the same molecule, the minimal effective dose (MES-induced seizures [1]; 0.5 h after administration) was 30 mg/kg, the minimal effective dose (MES-induced seizures [1]; 4 h after administration) was 30 mg/kg and the ED50 (MES-induced seizures [1]) was 9.1 mg/kg.

For `CCC1(C)CC(=O)NC1=O` (stereo not drawn) [Ethosuximide, reference compound], the ED50 (scPTZ) [7] was 94.4 mg/kg, the “PI (TD50/ED50) scPTZ” value [7] was 3.5 and the ED50 [7] was 94.4 mg/kg. The “TD50 (ROT)” value (mice [2]) was 333.7 (362.8–306.9) mg.

In the case of `CCOC(=O)c1ncn2c1CN(C)C(=O)c1cc(F)ccc1-2` [Flumazenil, reference compound], the “EPM % of time in open arms vs control” value (mice [6]; 5 mg/kg, listed as FMZ) is reported as “did not show significant differences; also recorded: did not show a significant difference”.

For `CCCCCOc1cc(OCCCCC)n2ncnc2n1` [I], the “MES, dose at which at least one of three animals was protected” value (MES-induced seizures [8]; 0.5 h) is listed as 30 mg/kg, the “MES, dose at which at least one of three animals was protected” value (MES-induced seizures [8]; 4 h) is listed as 30 mg/kg and the “ED50 (MES)” value (MES-induced seizures [8]; lead compound) is listed as 11.3 (12.3–10.4) mg. For the same molecule, the “PI (TD50/ED50) MES” value (MES-induced seizures [8]; lead compound) was 16.8, the “scPTZ, dose at which at least one of three animals was protected” value ([9]; 0.5 h) was 30 mg/kg and the “scPTZ, dose at which at least one of three animals was protected” value ([9]; 4 h) was 30 mg/kg. For the same molecule, the “ED50 (scPTZ)” value ([9]; lead compound) was 9.5 (10.4–8.8) mg, the “PI (TD50/ED50) scPTZ” value ([9]; lead compound) was 20.0 and the “NT (neurotoxicity, ROT)” value (mice [10]; 0.5 h) was >150 mg/kg. The “NT (neurotoxicity, ROT)” value (mice [10]; 4 h) was >150 mg/kg and the “TD50 (ROT)” value (mice [10]; lead compound) was 190.7 (207.3–175.4) mg.
